In series [1] the test system is L1210. The experiment in a line: Growth inhibitory activity on mouse L1210 cell culture. The class given is functional, cell-based.
In series [2] the test system is L1210. The experiment in a line: Growth inhibitory activity on L1210 cell culture in the presence of 5.6 uM thymidine(dThd). It is filed as functional, cell-based. The note with it: Mus musculus.
Series [3] relates to L1210. The experiment in a line: Growth inhibitory activity on L1210 cell culture in the presence of 32 uM hypoxanthine (Hx). It is filed as functional, cell-based. The following applies: Mus musculus.
For a further series, the target named is Thymidylate synthase (Mus musculus, UniProt P07607). The experiment in a line: Compound was tested for the inhibition of recombinant mouse thymidylate synthase, competitive with 5,10-methylenetetrahydrofolate as variable substrate.
Thymidylate synthase, sequence (P07607 whole entry): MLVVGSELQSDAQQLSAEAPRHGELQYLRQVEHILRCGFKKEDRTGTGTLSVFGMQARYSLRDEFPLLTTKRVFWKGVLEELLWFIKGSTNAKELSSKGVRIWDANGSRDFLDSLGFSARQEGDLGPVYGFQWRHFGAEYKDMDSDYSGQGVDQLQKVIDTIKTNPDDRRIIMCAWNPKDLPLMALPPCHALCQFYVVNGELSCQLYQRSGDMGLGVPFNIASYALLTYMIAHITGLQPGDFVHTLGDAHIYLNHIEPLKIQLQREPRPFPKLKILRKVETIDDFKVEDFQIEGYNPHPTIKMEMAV
Series [4] addresses Thymidylate synthase (Mus musculus) (UniProt P07607). The experiment in a line: Binding affinity towards thymidylate synthase (TS).
Substrate in series [5]: Nc1nc(O)c2cc(CNc3ccc(C(=O)NC(CCC(=O)O)C(=O)O)cc3)ccc2n1
Nature of the series: (§1) Kinetic characteristic of compound for mouse liver FPGS(in vitro).

Substrate in series [6]: O=C(O)CCC(NC(=O)c1ccc(NCc2ccc3ncnc(O)c3c2)cc1)C(=O)O
Described as §1.

Substrate in series [7]: O=C(O)CCC(NC(=O)c1ccc(NCc2ccc3nnnc(O)c3c2)cc1)C(=O)O

One may read the IC50 as the midpoint of a concentration-inhibition curve. A word on the Ki: it is a measure of affinity in units of concentration, obtained from inhibition or displacement. A word on the Km: it is the concentration of substrate that gives half-maximal velocity.

Thymidylate synthase (Mus musculus), sequence (P07607 whole entry, looked up): as the sequence (P07607 whole entry) above

In turn, `Nc1nc(O)c2cc(CNc3ccc(C(=O)NC(CCC(=O)O)C(=O)O)cc3)ccc2n1` (stereo not given) [DIDEAZAFOLATE] showed an IC50 in the series on L1210 [1] of 2700 nM.
In the series on L1210 [1], `O=C(O)CCC(NC(=O)c1ccc(NCc2ccc3ncnc(O)c3c2)cc1)C(=O)O` (stereo not given) returned an IC50 of 430 nM.
Regarding `O=C(O)CCC(NC(=O)c1ccc(NCc2ccc3nnnc(O)c3c2)cc1)C(=O)O` (stereo not given), the IC50 in the series on L1210 [2] is 890 nM; in the series on L1210 [1], 520 nM; with L1210 [3], 970 nM. The Ki (at Thymidylate synthase; in series [4]) was 2300 nM in each case.

B1: Folylpolyglutamate synthase, mitochondrial (Mus musculus), P48760 (protein)
chain: MSWARSRLCSTLSLAAVSARGATTEGAARRGMSAWPAPQEPGMEYQDAVRTLNTLQTNASYLEQVKRQRSDPQAQLEAMEMYLARSGLQVEDLNRLNIIHVTGTKGKGSTCAFTERILRNYGLKTGFFSSPHMVQVRERIRINGKPISPELFTKHFWCLYNQLEEFKDDSHVSMPSYFRFLTLMAFHVFLQEKVDLAVVEVGIGGAFDCTNIIRKPVVCGVSSLGIDHTSLLGDTVEKIAWQKGGIFKPGVPAFTVVQPEGPLAVLRDRAQQIGCPLYLCPPLEALEEVGLPLSLGLEGAHQRSNAALALQLAHCWLERQDHQDIQELKVSRPSIRWQLPLAPVFRPTPHMRRGLRDTVWPGRTQILQRGPLTWYLDGAHTTSSVQACVHWYRQSLERSKRTDGGSEVHILLFNSTGDRDSAALLKLLQPCQFDYAVFCPNVTEVSSIGNADQQNFTVTLDQVLLRCLQHQQHWNGLAEKQASSNLWSSCGPDPAGPGSLLLAPHPPQPTRTSSLVFSCISHALLWISQGRDPIFQPQSLPRNLLNHPTANSGASILREAAAIHVLVTGSLHLVGGVLKLLDPSMSQ
As to B1, the Km in series [5] was found to be 6.4 µM; in series [6], 4.8 µM; in series [7] it was 28 µM.

These data come from ChEMBL document CHEMBL1125481, “N-[4-[[(3,4-dihydro-4-oxo-1,2,3-benzotriazin-6-yl)methyl]amino]benzoyl]-L-glutamic acid, a novel A-ring analogue of 2-desamino-5,8-dideazafolic acid” (J Med Chem, 1992).
